Measurements reported in patent US12472272B2, “Radiolabelled compounds for diagnosis or treatment of prostate-specific membrane antigen- expressing cancer” (PROVINCIAL HEALTH SERVICES AUTHORITY, priority 2019, dated 2025).

System: PSMA-expressing cancer xenografts (LNCaP)
Assay: Biodistribution of ^177Lu-labeled HTK03041
Format: in vivo, mice
Settings: for Tissue (% ID/g): Adrenal glands / Tissue (% ID/g): Blood / Tissue (% ID/g): Bone / Tissue (% ID/g): Brain / Tissue (% ID/g): Fat / Tissue (% ID/g): Heart / Tissue (% ID/g): Intestine / Tissue (% ID/g): Kidneys / Tissue (% ID/g): Lacrimal / Tissue (% ID/g): Liver / Tissue (% ID/g): Lungs / Tissue (% ID/g): Muscle / Tissue (% ID/g): Pancreas / Tissue (% ID/g): Salivary / Tissue (% ID/g): Seminal / Tissue (% ID/g): Spleen / Tissue (% ID/g): Stomach / Tissue (% ID/g): Tail / Tissue (% ID/g): Testes / Tissue (% ID/g): Thyroid / Tissue (% ID/g): Tumor / Tissue (% ID/g): Urine / tumor-to-background contrast ratio Tumor: Blood / tumor-to-background contrast ratio Tumor: Muscle / tumor-to-background contrast ratio Tumor: kidney: ^177Lu
Method: Imaging and biodistribution experiments were performed using NODSCID 1L2RγKO male mice. Mice were anesthetized by inhalation with 2% isoflurane in oxygen, and implanted subcutaneously with 1×10^7 LNCaP cells behind left shoulder. Mice were imaged or used in biodistribution studies when the tumor grew up to reach 5-8 mm in diameter during 5-6 weeks.
SPECT/CT imaging experiments were conducted using the MlLabs (Utrecht, the Netherlands) U-SPECT-II/CT scanner. Each tumor bearing mouse was injected with ˜37 MBq of ^177Lu-labeled HTK03041 through the tail vein under anesthesia (2% isoflurane in oxygen). The mice were allowed to recover and roam freely in their cage and imaged at 1, 4, 24, 72 and 120 hours after injection. At each time point, the mice were sedated again and positioned in the scanner. A 5-min CT scan was conducted first for anatomical reference with a voltage setting at 60 kV and current at 615 μA followed by a 60-min static emission scan acquired in list mode using an ultra-high resolution multi-pinhole rat-mouse (1 mm pinhole size) collimator. Data were reconstructed using the U-SPECT II software with a 20% window width on three energy windows. The photopeak window was centered at 208 keV, with lower scatter and upper scatter windows centered at 170 and 255 keV, respectively. Reconstruction parameters used maximum-likelihood expectation maximization (3 iterations), pixel-based ordered subset expectation maximization (16 subsets), and a post-processing filter (Gaussian blurring) of 0.5 mm. Images were decay corrected to injection time in PMOD (PMOD Technologies, Switzerland) then converted to DICOM for qualitative visualization in Inveon Research Workplace (Siemens Medical Solutions USA, Inc.).
For biodistribution studies, the mice were injected with the radiotracer as described above. At predetermined time points (1 or 3 h for ^68Ga studies; 1, 4, 24, 72, or 120 h for ^177Lu studies), the mice was anesthetized with 2% isoflurane inhalation, and euthanized by CO2 inhalation. Blood was withdrawn immediately from the heart, and the organs/tissues of interest were collected. The collected organs/tissues were weighed and counted using a Perkin Elmer (Waltham, MA) Wizard2 2480 gamma counter. The uptake in each organ/tissue was normalized to the injected dose using a standard curve, and expressed as the percentage of the injected dose per gram of tissue (% ID/g).

## O=C([O-])CN1CCN(CC(=O)[O-])CCN(CC(=O)NC[C@H]2CC[C@H](C(=O)N[C@@H](Cc3c4ccccc4cc4ccccc34)C(=O)NCCCC[C@H](NC(=O)N[C@@H](CCC(=O)O)C(=O)O)C(=O)O)CC2)CCN(CC(=O)[O-])CC1.[177Lu+3] [^177Lu-HTK03041]
LNCaP tumor-bearing mice
  peaked tumor uptake: ~20 % ID/g
1 h post-injection
  Tissue (% ID/g): Adrenal glands: 5.53 ± 1.90 % ID/g
  Tissue (% ID/g): Blood: 0.84 ± 0.15 % ID/g
  Tissue (% ID/g): Bone: 0.29 ± 0.07 % ID/g
  Tissue (% ID/g): Brain: 0.04 ± 0.01 % ID/g
  Tissue (% ID/g): Fat: 1.09 ± 0.20 % ID/g
  Tissue (% ID/g): Heart: 2.44 ± 0.43 % ID/g
  Tissue (% ID/g): Intestine: 1.25 ± 0.15 % ID/g
  Tissue (% ID/g): Kidneys: 98.6 ± 9.27 % ID/g
  Tissue (% ID/g): Lacrimal: 0.03 ± 0.04 % ID/g
  Tissue (% ID/g): Liver: 1.91 ± 0.38 % ID/g
  Tissue (% ID/g): Lungs: 4.41 ± 0.49 % ID/g
  Tissue (% ID/g): Muscle: 0.94 ± 0.20 % ID/g
  Tissue (% ID/g): Pancreas: 1.61 ± 0.24 % ID/g
  Tissue (% ID/g): Salivary: 5.88 ± 0.82 % ID/g
  Tissue (% ID/g): Seminal: 1.22 ± 0.85 % ID/g
  Tissue (% ID/g): Spleen: 8.80 ± 2.53 % ID/g
  Tissue (% ID/g): Stomach: 0.47 ± 0.18 % ID/g
  Tissue (% ID/g): Tail: 3.41 ± 3.03 % ID/g
  Tissue (% ID/g): Testes: 1.01 ± 0.17 % ID/g
  Tissue (% ID/g): Thyroid: 3.38 ± 0.44 % ID/g
  Tissue (% ID/g): Tumor: 10.8 ± 1.57 % ID/g
  Tissue (% ID/g): Urine: 160 ± 49.6 % ID/g
  tumor-to-background contrast ratio Tumor: Blood: 13.4 ± 4.08
  tumor-to-background contrast ratio Tumor: Muscle: 12.1 ± 4.21
  tumor-to-background contrast ratio Tumor: kidney: 0.11 ± 0.02
4 h post-injection
  Tissue (% ID/g): Adrenal glands: 3.41 ± 0.54 % ID/g
  Tissue (% ID/g): Blood: 0.31 ± 0.04 % ID/g
  Tissue (% ID/g): Bone: 0.45 ± 0.53 % ID/g
  Tissue (% ID/g): Brain: 0.05 ± 0.05 % ID/g
  Tissue (% ID/g): Fat: 0.56 ± 0.16 % ID/g
  Tissue (% ID/g): Heart: 1.69 ± 0.13 % ID/g
  Tissue (% ID/g): Intestine: 0.95 ± 0.08 % ID/g
  Tissue (% ID/g): Kidneys: 101 ± 13.3 % ID/g
  Tissue (% ID/g): Lacrimal: 0.02 ± 0.01 % ID/g
  Tissue (% ID/g): Liver: 1.46 ± 0.17 % ID/g
  Tissue (% ID/g): Lungs: 3.20 ± 0.41 % ID/g
  Tissue (% ID/g): Muscle: 0.56 ± 0.15 % ID/g
  Tissue (% ID/g): Pancreas: 1.15 ± 0.13 % ID/g
  Tissue (% ID/g): Salivary: 2.18 ± 0.56 % ID/g
  Tissue (% ID/g): Seminal: 0.57 ± 0.12 % ID/g
  Tissue (% ID/g): Spleen: 3.22 ± 1.01 % ID/g
  Tissue (% ID/g): Stomach: 0.37 ± 0.06 % ID/g
  Tissue (% ID/g): Tail: 1.06 ± 0.60 % ID/g
  Tissue (% ID/g): Testes: 0.92 ± 0.10 % ID/g
  Tissue (% ID/g): Thyroid: 2.10 ± 0.19 % ID/g
  Tissue (% ID/g): Tumor: 18.7±2.96 % ID/g
  Tissue (% ID/g): Urine: 84.6 ± 39.3 % ID/g
  tumor-to-background contrast ratio Tumor: Blood: 60.3 ± 4.81
  tumor-to-background contrast ratio Tumor: Muscle: 34.4 ± 8.39
  tumor-to-background contrast ratio Tumor: kidney: 0.19 ± 0.02
24 h post-injection
  Tissue (% ID/g): Adrenal glands: 0.76 ± 0.10 % ID/g
  Tissue (% ID/g): Blood: 0.07 ± 0.00 % ID/g
  Tissue (% ID/g): Bone: 0.07 ± 0.02 % ID/g
  Tissue (% ID/g): Brain: 0.01 ± 0.00 % ID/g
  Tissue (% ID/g): Fat: 0.16 ± 0.02 % ID/g
  Tissue (% ID/g): Heart: 0.41 ± 0.07 % ID/g
  Tissue (% ID/g): Intestine: 0.30 ± 0.06 % ID/g
  Tissue (% ID/g): Kidneys: 20.3 ± 6.51 % ID/g
  Tissue (% ID/g): Lacrimal: 0.00 ± 0.00 % ID/g
  Tissue (% ID/g): Liver: 0.42 ± 0.08 % ID/g
  Tissue (% ID/g): Lungs: 0.83 ± 0.12 % ID/g
  Tissue (% ID/g): Muscle: 0.15 ± 0.03 % ID/g
  Tissue (% ID/g): Pancreas: 0.26 ± 0.04 % ID/g
